Each compound was assayed against T1, estrogen receptor (Homo sapiens, UniProt P03372) (assay: Alkaline phosphatase (AP) assay in ECC-1 cells, agonist mode (no E2) and antagonist mode (500 pM E2)). Settings: 3 days, AP activity normalized to 500 pM E2 alone, agonist mode without E2, antagonist mode with 500 pM E2.
T1 construct: endogenous in cells; host or cells: ECC-1 cells
T1 sequence (P03372 1-595): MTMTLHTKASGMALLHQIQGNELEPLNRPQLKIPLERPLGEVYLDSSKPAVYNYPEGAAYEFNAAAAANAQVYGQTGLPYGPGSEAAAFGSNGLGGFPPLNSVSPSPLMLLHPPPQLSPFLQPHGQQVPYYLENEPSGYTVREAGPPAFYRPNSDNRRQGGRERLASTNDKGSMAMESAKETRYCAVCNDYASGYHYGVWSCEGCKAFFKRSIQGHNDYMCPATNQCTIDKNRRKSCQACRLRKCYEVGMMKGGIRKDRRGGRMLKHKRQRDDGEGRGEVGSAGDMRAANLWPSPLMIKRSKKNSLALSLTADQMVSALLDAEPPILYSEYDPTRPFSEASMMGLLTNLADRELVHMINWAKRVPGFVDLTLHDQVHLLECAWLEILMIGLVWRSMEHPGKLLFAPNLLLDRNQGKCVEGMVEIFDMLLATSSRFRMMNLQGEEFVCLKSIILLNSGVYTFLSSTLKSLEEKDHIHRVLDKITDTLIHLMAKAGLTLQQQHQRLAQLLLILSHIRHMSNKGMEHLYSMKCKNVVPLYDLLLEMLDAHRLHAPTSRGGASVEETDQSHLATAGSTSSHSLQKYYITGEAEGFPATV
Format: cell-based
Procedure, shortened: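 ECC-1 cells in hormone-depleted medium treated 3 days with compound alone (agonist mode) or with 500 pM E2 (antagonist mode). Alkaline phosphatase read by p-nitrophenyl phosphate hydrolysis, 40 min at 42° C, A405. Activity normalized to 500 pM E2 alone.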

Compound | Activity (estrogen receptor modulation, agonism and antagonism)
C[C@@H]1Cc2c([nH]c3ccccc23)[C@@H](c2ccc(SC3CN(CCCF)C3)s2)N1CC(C)(C)F [Example I-61, 3-({5-[(1S,3R)-2-(2-fluoro-2-methylpropyl)-3-methyl-1H,2H,3H,4H,9H-pyrido[3,4-b]indol-1-yl]thiophen-2-yl}sulfanyl)-1-(3-fluoropropyl)azetidine] | ++ (estrogen receptor antagonism having (i) between 10% and 80% increase in the E2-normalized signal in the AP assay (agonist mode) and (ii) between 10% and 80% reduction in the E2-normalized signal in the AP assay (antagonist mode))
C[C@@H]1Cc2c([nH]c3ccccc23)[C@@H](c2cnc(N[C@@H]3CCCN(CCCF)C3)s2)N1CC(F)(F)CO [Example I-67, 2,2-difluoro-3-((1S,3R)-1-(2-(((R)-1-(3-fluoropropyl)piperidin-3-yl)amino)thiazol-5-yl)-3-methyl-1,3,4,9-tetrahydro-2H-pyrido[3,4-b]indol-2-yl)propan-1-ol] | + (estrogen receptor agonism having (i) at least 80% increase in the E2-normalized signal in the AP assay (agonist mode) and (ii) no more than 80% reduction in the E2-normalized signal in the AP assay (antagonist mode))
COCCCN1CC(Cc2ccc([C@@H]3c4[nH]c5ccccc5c4C[C@@H](C)N3CC(F)(F)CO)s2)C1 [Example I-53, 2,2-difluoro-3-[(1S,3R)-1-[5-[[1-(3-methoxypropyl)azetidin-3-yl]methyl]-2-thienyl]-3-methyl-1,3,4,9-tetrahydropyrido[3,4-b]indol-2-yl]propan-1-ol] | ++ (estrogen receptor antagonism having (i) between 10% and 80% increase in the E2-normalized signal in the AP assay (agonist mode) and (ii) between 10% and 80% reduction in the E2-normalized signal in the AP assay (antagonist mode))
C[C@@H]1Cc2c([nH]c3ccccc23)[C@@H](c2cnc(C[C@@H]3CCN(CCCF)C3)s2)N1CC(C)(C)F [Example I-43] | ++ (estrogen receptor antagonism having (i) between 10% and 80% increase in the E2-normalized signal in the AP assay (agonist mode) and (ii) between 10% and 80% reduction in the E2-normalized signal in the AP assay (antagonist mode))
C[C@@H]1Cc2c([nH]c3ccccc23)[C@@H](c2ccc(CC3CN(CCC(F)(F)F)C3)s2)N1CC(C)(C)F [Example I-15, 3-({5-[(1S,3R)-2-(2-fluoro-2-methylpropyl)-3-methyl-1H,2H,3H,4H,9H-pyrido[3,4-b]indol-1-yl]thiophen-2-yl}methyl)-1-(3,3,3-trifluoropropyl)azetidine] | ++ (estrogen receptor antagonism having (i) between 10% and 80% increase in the E2-normalized signal in the AP assay (agonist mode) and (ii) between 10% and 80% reduction in the E2-normalized signal in the AP assay (antagonist mode))
CCCN1CC(Cc2cnc([C@@H]3c4[nH]c5ccccc5c4C[C@@H](C)N3CC(F)(F)F)s2)C1 [Example I-37, 2-[(1S,3R)-3-methyl-2-(2,2,2-trifluoroethyl)-1,3,4,9-tetrahydropyrido[3,4-b]indol-1-yl]-5-[(1-propylazetidin-3-yl)methyl]thiazole] | ++ (estrogen receptor antagonism having (i) between 10% and 80% increase in the E2-normalized signal in the AP assay (agonist mode) and (ii) between 10% and 80% reduction in the E2-normalized signal in the AP assay (antagonist mode))
C[C@@H]1Cc2c([nH]c3ccccc23)[C@@H](c2ncc(CC3CN(CCCF)C3)s2)N1CC(F)(F)F [Example I-34, 5-[[1-(3-fluoropropyl)azetidin-3-yl]methyl]-2-[(1S,3R)-3-methyl-2-(2,2,2-trifluoroethyl)-1,3,4,9-tetrahydropyrido[3,4-b]indol-1-yl]thiazole] | ++ (estrogen receptor antagonism having (i) between 10% and 80% increase in the E2-normalized signal in the AP assay (agonist mode) and (ii) between 10% and 80% reduction in the E2-normalized signal in the AP assay (antagonist mode))
CCCN1CC[C@@H](Cc2ncc([C@@H]3c4[nH]c5ccccc5c4C[C@@H](C)N3CC(F)(F)F)s2)C1 [Example I-49, 5-[(1S,3R)-3-methyl-2-(2,2,2-trifluoroethyl)-1,3,4,9-tetrahydropyrido[3,4-b]indol-1-yl]-2-[[(3S)-1-propylpyrrolidin-3-yl]methyl]thiazole] | + (estrogen receptor agonism having (i) at least 80% increase in the E2-normalized signal in the AP assay (agonist mode) and (ii) no more than 80% reduction in the E2-normalized signal in the AP assay (antagonist mode))
C[C@@H]1Cc2c([nH]c3ccccc23)[C@@H](c2cnc(C[C@H]3CCN(CCCF)C3)s2)N1CC(F)(F)CO [Example I-36, 2,2-difluoro-3-[(1S,3R)-1-[2-[[(3R)-1-(3-fluoropropyl)pyrrolidin-3-yl]methyl]thiazol-5-yl]-3-methyl-1,3,4,9-tetrahydropyrido[3,4-b]indol-2-yl]propan-1-ol] | + (estrogen receptor agonism having (i) at least 80% increase in the E2-normalized signal in the AP assay (agonist mode) and (ii) no more than 80% reduction in the E2-normalized signal in the AP assay (antagonist mode))
C[C@@H]1Cc2c([nH]c3ccccc23)[C@@H](c2cnc(C[C@@H]3CCN(CCCF)C3)s2)N1CC(F)F [Example I-41, 5-[(1S,3R)-2-(2,2-difluoroethyl)-3-methyl-1,3,4,9-tetrahydropyrido[3,4-b]indol-1-yl]-2-[[(3S)-1-(3-fluoropropyl)pyrrolidin-3-yl]methyl]thiazole] | ++ (estrogen receptor antagonism having (i) between 10% and 80% increase in the E2-normalized signal in the AP assay (agonist mode) and (ii) between 10% and 80% reduction in the E2-normalized signal in the AP assay (antagonist mode))
C[C@@H]1Cc2c([nH]c3ccccc23)[C@@H](c2ccc(CC3CN(CCC4COC4)C3)s2)N1CC(F)(F)CO [Example I-59, 2,2-difluoro-3-((1S,3R)-3-methyl-1-(5-((1-(2-(oxetan-3-yl)ethyl)azetidin-3-yl)methyl)thiophen-2-yl)-1,3,4,9-tetrahydro-2H-pyrido[3,4-b]indol-2-yl)propan-1-ol] | + (estrogen receptor agonism having (i) at least 80% increase in the E2-normalized signal in the AP assay (agonist mode) and (ii) no more than 80% reduction in the E2-normalized signal in the AP assay (antagonist mode))
C[C@@H]1Cc2c([nH]c3ccccc23)[C@@H](c2ccc(CC3CN(CCCF)C3)s2)N1CC(C)(F)F [Example I-22, 3-({5-[(1S,3R)-2-(2,2-difluoropropyl)-3-methyl-1H,2H,3H,4H,9H-pyrido[3,4-b]indol-1-yl]thiophen-2-yl}methyl)-1-(3-fluoropropyl)azetidine] | ++ (estrogen receptor antagonism having (i) between 10% and 80% increase in the E2-normalized signal in the AP assay (agonist mode) and (ii) between 10% and 80% reduction in the E2-normalized signal in the AP assay (antagonist mode))
C[C@@H]1Cc2c([nH]c3ccccc23)[C@@H](c2ccc(CC3CN(CCCF)C3)s2)N1CC(F)(F)CF [Example I-23, (1S,3R)-1-(5-((1-(3-fluoropropyl)azetidin-3-yl)methyl)thiophen-2-yl)-3-methyl-2-(2,2,3-trifluoropropyl)-2,3,4,9-tetrahydro-1H-pyrido[3,4-b]indole] | ++ (estrogen receptor antagonism having (i) between 10% and 80% increase in the E2-normalized signal in the AP assay (agonist mode) and (ii) between 10% and 80% reduction in the E2-normalized signal in the AP assay (antagonist mode))
C[C@@H]1Cc2c([nH]c3ccccc23)[C@@H](c2ccc(CC3CN(CCCF)C3)s2)N1CC(F)(F)CO [Example I-16, 2,2-difluoro-3-[(1S,3R)-1-(5-{[1-(3-fluoropropyl)azetidin-3-yl]methyl}thiophen-2-yl)-3-methyl-1H,2H,3H,4H,9H-pyrido[3,4-b]indol-2-yl]propan-1-ol] | +++ (estrogen receptor antagonism (i) with pIC50 greater than 7.5 and at least a 10% reduction in the E2-normalized signal in the AP assay (antagonist mode); and no more than 10% increase in E2-normalized signal in the AP assay (agonist mode))
CCCN1CC(Sc2ccc([C@@H]3c4[nH]c5ccccc5c4C[C@@H](C)N3CC(C)(C)F)s2)C1 [Example I-62, 3-({5-[(1S,3R)-2-(2-fluoro-2-methylpropyl)-3-methyl-1H,2H,3H,4H,9H-pyrido[3,4-b]indol-1-yl]thiophen-2-yl}sulfanyl)-1-propylazetidine] | ++ (estrogen receptor antagonism having (i) between 10% and 80% increase in the E2-normalized signal in the AP assay (agonist mode) and (ii) between 10% and 80% reduction in the E2-normalized signal in the AP assay (antagonist mode))

From US20260055103A1, “2,3,4,9-TETRAHYDRO-1H-PYRIDO[3,4-B]INDOLE DERIVATIVES AS ESTROGEN RECEPTOR MODULATORS FOR THE TREATMENT OF CANCER” (Olema Pharmaceuticals, Inc., priority 2022, published 2026)
